Test results reported in BindingDB's records for doi:10.1111/j.1476-5381.1995.tb14977.x (Syntex Discovery Research, 1995).
Where “and” joins values, the source holds several entries; their conditions need not be identical. Equal entries are not always repeated.

How the values were obtained:
[1] = biological target: T1, 5-hydroxytryptamine receptor 2C (Rattus norvegicus, UniProt P08909)
T1 sequence (P08909 whole entry): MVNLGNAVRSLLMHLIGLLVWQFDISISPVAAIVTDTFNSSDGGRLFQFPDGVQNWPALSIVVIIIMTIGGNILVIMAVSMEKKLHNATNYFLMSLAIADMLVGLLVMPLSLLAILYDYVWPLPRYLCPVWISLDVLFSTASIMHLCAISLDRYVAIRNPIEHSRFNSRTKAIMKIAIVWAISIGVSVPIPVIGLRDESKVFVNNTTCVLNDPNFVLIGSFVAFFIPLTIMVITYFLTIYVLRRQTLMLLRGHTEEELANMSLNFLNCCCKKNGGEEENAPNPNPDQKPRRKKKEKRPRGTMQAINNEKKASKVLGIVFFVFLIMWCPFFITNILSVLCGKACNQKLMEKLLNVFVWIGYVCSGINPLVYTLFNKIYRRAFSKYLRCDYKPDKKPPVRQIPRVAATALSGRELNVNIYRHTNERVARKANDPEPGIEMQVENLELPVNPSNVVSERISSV

[2] = biological target: 5-hydroxytryptamine receptor 2B (Rattus norvegicus, UniProt P30994)
5-hydroxytryptamine receptor 2B (Rattus norvegicus, UniProt P30994), sequence (P30994 whole entry): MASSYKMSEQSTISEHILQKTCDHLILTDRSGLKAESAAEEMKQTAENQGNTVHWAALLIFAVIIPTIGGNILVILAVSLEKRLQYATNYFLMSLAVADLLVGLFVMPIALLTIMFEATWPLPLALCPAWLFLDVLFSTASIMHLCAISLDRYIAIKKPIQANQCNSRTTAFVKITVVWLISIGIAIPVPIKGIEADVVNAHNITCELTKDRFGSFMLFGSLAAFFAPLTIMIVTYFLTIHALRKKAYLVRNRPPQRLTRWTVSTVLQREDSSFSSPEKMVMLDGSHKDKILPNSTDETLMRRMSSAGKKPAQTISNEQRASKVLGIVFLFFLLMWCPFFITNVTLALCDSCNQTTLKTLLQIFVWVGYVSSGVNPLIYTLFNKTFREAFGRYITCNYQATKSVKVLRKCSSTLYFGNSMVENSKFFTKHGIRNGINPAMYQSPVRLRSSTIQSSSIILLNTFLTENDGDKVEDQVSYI

[3] = biological target: 5-hydroxytryptamine receptor 2B (Homo sapiens, UniProt P41595)
5-hydroxytryptamine receptor 2B (Homo sapiens, UniProt P41595), sequence (P41595 whole entry): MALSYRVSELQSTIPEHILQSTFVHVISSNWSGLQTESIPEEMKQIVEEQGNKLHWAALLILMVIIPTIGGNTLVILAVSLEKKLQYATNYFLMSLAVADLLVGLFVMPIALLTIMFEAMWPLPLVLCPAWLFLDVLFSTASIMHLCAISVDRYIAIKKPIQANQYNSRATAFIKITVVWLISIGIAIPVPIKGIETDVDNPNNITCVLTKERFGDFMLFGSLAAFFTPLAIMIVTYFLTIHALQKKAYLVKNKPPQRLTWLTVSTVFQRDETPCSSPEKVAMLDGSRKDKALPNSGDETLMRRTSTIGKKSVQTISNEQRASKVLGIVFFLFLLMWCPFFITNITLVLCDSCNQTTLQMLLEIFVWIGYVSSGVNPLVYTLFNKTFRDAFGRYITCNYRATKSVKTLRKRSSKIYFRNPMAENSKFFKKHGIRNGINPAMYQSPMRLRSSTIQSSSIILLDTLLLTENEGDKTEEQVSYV

[4] = biological target: T2, 5-hydroxytryptamine receptor 2C (Homo sapiens, UniProt P28335)
T2 sequence (P28335 whole entry): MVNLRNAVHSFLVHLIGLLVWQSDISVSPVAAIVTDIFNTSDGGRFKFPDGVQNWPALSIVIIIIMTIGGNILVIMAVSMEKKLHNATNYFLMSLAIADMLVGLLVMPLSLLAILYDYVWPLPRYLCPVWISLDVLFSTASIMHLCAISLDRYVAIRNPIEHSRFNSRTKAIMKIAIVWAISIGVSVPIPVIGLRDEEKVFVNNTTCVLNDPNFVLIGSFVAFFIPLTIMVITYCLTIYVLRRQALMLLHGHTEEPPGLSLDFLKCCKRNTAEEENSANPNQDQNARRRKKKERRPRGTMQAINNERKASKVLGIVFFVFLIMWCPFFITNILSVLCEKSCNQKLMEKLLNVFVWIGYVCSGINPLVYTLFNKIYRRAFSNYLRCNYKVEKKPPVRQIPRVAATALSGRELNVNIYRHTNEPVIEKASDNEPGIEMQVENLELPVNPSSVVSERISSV

COC(=O)[C@@H]1[C@H]2C[C@H]3c4[nH]c5ccccc5c4CCN3C[C@@H]2CC[C@@H]1O [yohimbic acid methyl ester]
Ki [1]: > 10000 nM | Ki [2]: 50.1 nM

O=C(c1ccc(F)cc1)C1CCN(CCn2c(=O)[nH]c3ccccc3c2=O)CC1 [3-(2-{4-[(4-fluorophenyl)carbonyl]piperidin-1-yl}ethyl)-1,2,3,4-tetrahydroquinazoline-2,4-dione]
Ki [1]: 63.1 nM | Ki [2]: 3980 nM

Cn1ccc2cc(NC(=O)Nc3cccnc3)ccc21 [SB 200646]
Ki [1]: 1000 nM | Ki [3]: 631 nM | Ki [4]: 501 nM

O=C(CCCN1CCC2(CC1)C(=O)NCN2c1ccccc1)c1ccc(F)cc1 [8-[4-(4-fluorophenyl)-4-oxidanylidene-butyl]-1-phenyl-1,3,8-triazaspiro[4.5]decan-4-one]
Ki [3]: 1580 nM | Ki [4]: 501 nM and 1000 nM

Cc1nc2sccn2c(=O)c1CCN1CCC(=C(c2ccc(F)cc2)c2ccc(F)cc2)CC1
Ki [3]: 5.01 nM | Ki [4]: 0.25 nM

Clc1cccc(N2CCNCC2)c1 [mCPP]
Ki [1]: 126 nM | Ki [2]: 25.1 nM

CC[C@@H](CO)NC(=O)[C@@H]1C=C2c3cccc4c3c(cn4C)C[C@H]2N(C)C1
Ki [1]: 1.99 nM | Ki [4]: 1.58 nM
